The compounds below were run on HIV-1 (HIV-1 RF, HIV-1 NL4-3) in CEM-SS / MT-2 cells (assay: Cytopathic effect (CPE) inhibition assay (XTT/MTT dye reduction)). Details: Human immunodeficiency virus 1, NL43, unit inferred; read-out: EC50.
Format: cell-based
Procedure: T-cell lines, CEM-SS, and MT-2, and viruses HIV-1 RF and HIV-1 NL4-3 (pNL4-3) were obtained from the National Institutes of Health (AIDS Research and Reference Reagent Program, Bethesda, Md.).
Cytopathic Effect (CPE) Inhibition Assays
The ability of compounds to protect cells against HIV infection was measured by the […] dye reduction method, essentially as described (See Pauwels, R. Balzarini, J. Baba, M. Snoeck, R. Schols, D. Herdewijn, P. Desmyter, J. and De Clercq, E. 1988, “Rapid and automated tetrazolium-based colorimetric assay for the detection of anti-HIV compounds,”. J Virol. Methods., 20: 309–321 and Weislow, O. S. Kiser, R. Fine, D. L. Bader, J. Shoemaker, R. H. and Boyd, M. R. 1989. “New soluble-formazan assay for HIV-1 cytopathic effects: application to high-flux screening of synthetic and natural products for AIDS-antiviral activity”. J. Natl. Cancer Inst. 81:577–586). Subject cells were infected with test virus at an moi of 0.025 to 0.819 or mock infected with medium only and added at 2×10^4 cells per well into 96 well plates containing half-log dilutions of test compounds. Six days later, 50 μl of XTT (1 mg/ml XTT tetrazolium, 0.02 nM phenazine methosulfate) was added to the wells and the plate was reincubated for four hours. Viability, as determined by the amount of XTT formazan produced, was quantified spectrophotometrically by absorbance at 450 nm. Data from CPE assays were expressed as the percent of formazan produced in compound-treated cells compared to formazan produced in wells of uninfected, compound-free cells. The fifty percent effective concentration (EC50) was calculated as the concentration of compound that effected an increase in the percentage of formazan production in infected, compound-treated cells to 50% of that produced by uninfected, compound-free cells. The 50% cytotoxicity concentration (CC50) was calculated as the concentration of compound that decreased the percentage of formazan produced in uninfected, compound-treated cells to 50% of that produced in uninfected, compound-free cells. The therapeutic index was calculated by dividing the cytotoxicity (CC50) by the antiviral activity (EC50).

| EC50 | SMILES |
| --- | --- |
| ≥ 10000 nM | Cc1ccccc1CNC(=O)[C@@H]1C(C(=O)[C@@H](O)[C@H](Cc2ccccc2)NC(=O)c2cccc(O)c2C)[C@@H]2CC[C@@H]1C2 (stereo partly shown) |
| ≥ 10000 nM | Cc1ccccc1CNC(=O)[C@H]1C(C(=O)[C@@H](O)[C@H](Cc2ccccc2)NC(=O)c2cccc(O)c2C)[C@@H]2CC[C@@H]1C2 (stereo partly shown) |

Same assay, conditions: Human immunodeficiency virus 1, NL43; read-out: Ave CPE EC50

| SMILES | EC50 |
| --- | --- |
| Cc1c(O)cccc1C(=O)N[C@@H](Cc1ccccc1)[C@H](O)C(=O)N1CSC(C)(C)[C@H]1C(=O)NCc1cc2ccccc2n1C [Example A63, (R)-3-[(2S,3S)-2-Hydroxy-3-(3-hydroxy-2-methyl-benzoylamino)-4-phenyl-butyryl]-5,5-dimethyl-thiazolidine-4-carboxylic acid (1-methyl-1H-indol-2-ylmethyl)-amide] | 1190 nM |
| COc1ccc(CNC(=O)N[C@@H](Cc2ccccc2)[C@H](O)C(=O)N2CSC(C)(C)[C@H]2C(=O)NCc2ccccc2C)cc1 [Example B60, 3-{(S)-2-Hydroxy-3-[3-(4-methoxy-benzyl)-ureido]-4phenyl-butyryl}-5,5-dimethyl-thiazolidine-4-carboxylic acid 2-methyl-benzylamide] | > 3200 nM |
| Cc1c(O)cccc1C(=O)N[C@@H](Cc1ccccc1)[C@H](O)C(=O)N1CSC(C)(C)[C@H]1C(=O)N1CCCCC1 [Example A34, N-{(1S,2S)-1-Benzyl-3-[(R)-5,5-dimethyl-4-(1-piperidin-1-yl-methanoyl)-thiazolidin-3-yl]-2-hydroxy-3-oxo-propyl}-3-hydroxy-2-methyl-benzamide] | 386 nM |
| Cc1ccccc1CNC(=O)[C@H]1N(C(=O)[C@@H](O)[C@H](Cc2ccccc2)NC(=O)c2cccc(O)c2C)CC(=O)C1(C)C [Example C48, 1-[2-Hydroxy-3-(3-hydroxy-2-methyl-benzoylamino)-4-phenyl-butyryl]-3,3-dimethyl-4-oxo-pyrrolidine-2-carboxylic acid 2-methyl-benzylamide] | 128 nM |
| CCC(C)C(=O)N[C@@H](Cc1ccccc1)[C@H](O)C(=O)N1CSC(C)(C)[C@H]1C(=O)NCc1ccccc1C (stereo partly drawn) [Example B12, (R)-3-[(2S,3S)-2-Hydroxy-3-(2-methyl-butyrylamino)-4-phenyl-butyryl]-5,5-dimethyl-thiazolidine-4-carboxylic acid 2-methyl-benzylamide] | > 1000 nM |
| C=CCNC(=O)C1N(C(=O)[C@@H](O)[C@H](Cc2cccc(F)c2)NC(=O)c2cccc(O)c2C)CC(F)(F)C1(C)C (stereo partly drawn) [Example D2, (R)-3-((2S,3R)-4,4-Difluoro-1-[4(3-fluoro-phenyl)-2-hydroxy-3-(3-hydroxy-2-methyl-benzoylamino)-butyryl])-3,3-dimethyl-pyrrolidine-2-carboxylic acid allyiamide] | 16 nM |
| Cc1cc(O)c(C)c(C(=O)N[C@@H](Cc2ccccc2)[C@H](O)C(=O)N2CC(F)(F)C(C)(C)[C@H]2C(=O)NCC(F)(F)F)c1 [Example D6, (S)-4,4-Difluoro-1-[(2S,3S)-2-hydroxy-3-(3-hydroxy-2,5-dimethyl-benzoylamino)-4-phenyl-butyryl]-3,3-dimethyl-pyrrolidine-2-carboxylic acid (2,2,2-trifluoro-ethyl)-amide] | 18 nM |
| Cc1c(O)cccc1C(=O)N[C@@H](Cc1cccc(F)c1)[C@H](O)C(=O)N1CC(F)(F)C(C)(C)[C@H]1C(=O)NCC(C)C [Example D3, (S)-4,4-Difluoro-1-[(2S,3S)-4-(3-fluoro-phenyl)-2-hydroxy-3-(3-hydroxy-2-methyl-benzoylamino)-butyryl]-3,3-dimethyl-pyrrolidine-2-carboxylic acid is butyl-amide] | 13 nM |

Same assay, conditions: unit inferred; read-out: EC50

| SMILES | EC50 |
| --- | --- |
| Cc1ccccc1CNC(=O)C1N(C(=O)[C@@H](O)[C@H](CSc2ccccc2)NC(=O)c2cccc(O)c2C)CSC1(C)C (stereo partly shown) [drawing 934] | 27 nM |

Each compound was assayed against T1, HIV-1 protease (Q7S mutant form) (Human immunodeficiency virus type 1 group M subtype B, UniProt P04585, Q495S) (assay: HIV-1 Protease RET assay). Details: Ave. Ki (nM), RET assay, Q7S enzyme, Morrison tight binding fit.
T1 construct: made in house
Format: biochemical
Procedure: Ki's for the inhibitors of HIV-1 protease were determined using a resonance energy transfer (RET) assay. […] This enzyme is first partially purified as inclusion bodies from cell lysate. It is then solublized in 8M urea and passed through a Q-Sepharose column (Pharmacia) for further purification. To refold this protein, samples containing Q7S is dialyzed into 50 mM sodium phosphate pH 7.0, 50 mM NaCl, 10 mM DTT, and 10% glycerol.
The commercially available peptide substrate (Molecular Probes Cat. # H-2930) RE(EDANS)SQNYPIVQK(DABCYL)R is used to assess activity and Ki's. This peptide is cleaved quantitatively by HIV-1 Pr at the Tyr-Pro bond. The EDANS fluorophore absorbs at 340 nm and emits at 490 nm. The reaction is carried out in a 96 well plate in a total volume of 100 µL and is run for 12 minutes at 37 C under steady-state conditions with 5 µM substrate and 2 nM active dimer enzyme concentration. The literature value Km for this substrate and enzyme is 103+/−8 µM (See Matayoshi, et al., “Novel Fluorogenic Substrates for Assaying Retroviral Proteases by Resonance Energy Transfer,” Science 247, 954 (1990)). The buffer for this reaction is 0.1M sodium acetate pH 4.8, 1M NaCl, 1 mM EDTA, 5 mM dithiothreitol, 10% dimethyl sulfoxide and 1 mg/ml bovine serum albumin. Inhibition curves are fit using the Morrison tight binding equation.

| SMILES | Ki |
| --- | --- |
| Cc1c(O)cccc1C(=O)N[C@@H](Cc1ccccc1)[C@H](O)C(=O)N1CSC(C)(C)[C@H]1C(=O)NCc1cc2ccccc2n1C [Example A63, (R)-3-[(2S,3S)-2-Hydroxy-3-(3-hydroxy-2-methyl-benzoylamino)-4-phenyl-butyryl]-5,5-dimethyl-thiazolidine-4-carboxylic acid (1-methyl-1H-indol-2-ylmethyl)-amide] | 4.5 nM |
| COc1ccc(CNC(=O)N[C@@H](Cc2ccccc2)[C@H](O)C(=O)N2CSC(C)(C)[C@H]2C(=O)NCc2ccccc2C)cc1 [Example B60, 3-{(S)-2-Hydroxy-3-[3-(4-methoxy-benzyl)-ureido]-4phenyl-butyryl}-5,5-dimethyl-thiazolidine-4-carboxylic acid 2-methyl-benzylamide] | 1.1 nM |
| Cc1c(O)cccc1C(=O)N[C@@H](Cc1ccccc1)[C@H](O)C(=O)N1CSC(C)(C)[C@H]1C(=O)N1CCCCC1 [Example A34, N-{(1S,2S)-1-Benzyl-3-[(R)-5,5-dimethyl-4-(1-piperidin-1-yl-methanoyl)-thiazolidin-3-yl]-2-hydroxy-3-oxo-propyl}-3-hydroxy-2-methyl-benzamide] | 1.4 nM |
| Cc1ccccc1CNC(=O)[C@H]1N(C(=O)[C@@H](O)[C@H](Cc2ccccc2)NC(=O)c2cccc(O)c2C)CC(=O)C1(C)C [Example C48, 1-[2-Hydroxy-3-(3-hydroxy-2-methyl-benzoylamino)-4-phenyl-butyryl]-3,3-dimethyl-4-oxo-pyrrolidine-2-carboxylic acid 2-methyl-benzylamide] | < 0.1 nM |
| CCC(C)C(=O)N[C@@H](Cc1ccccc1)[C@H](O)C(=O)N1CSC(C)(C)[C@H]1C(=O)NCc1ccccc1C (stereo partly drawn) [Example B12, (R)-3-[(2S,3S)-2-Hydroxy-3-(2-methyl-butyrylamino)-4-phenyl-butyryl]-5,5-dimethyl-thiazolidine-4-carboxylic acid 2-methyl-benzylamide] | 9.9 nM |
| CC1(C)SCN(C(=O)[C@@H](O)[C@H](Cc2ccccc2)NC(=O)NCc2ccccc2Cl)C1C(=O)NCc1ccccc1Cl (stereo partly drawn) [Example B46, 3-{(2S,3S)-3-[3-(2-Chloro-benzyl)-ureido]-2-hydroxy-4-phenyl-butyryl}-5,5-dimethyl-thiazolidine-4-carboxylic acid 2-chloro-benzylamide] | 93 nM |
| Cc1ccccc1CNC(=O)[C@H]1N(C(=O)[C@@H](O)[C@H](Cc2ccccc2)NC(=O)NC(C)C)CSC1(C)C [Example B17, 3-[(S)-2-Hydroxy-3-(3-isopropyl-ureide)-4-phenyl-butyryl]-5,5-dimethyl-thiazolidine-4carboxylic acid 2-methyl-benzylamide] | 4.8 nM |
| COc1ccccc1CNC(=O)NC(Cc1ccccc1)C(O)C(=O)N1CSC(C)(C)[C@H]1C(=O)NCc1ccccc1C (stereo in doubt) [Example B70, 3-{2-Hydroxy-3-[3-(2-methoxy-benzyl)-ureido]-4-phenyl-butyryl}-5,5-dimethyl-thiazolidine-4-carboxylic acid 2-methyl-benzylamide] | 21 nM |

Same assay, conditions: Ki, unit inferred

| SMILES | Ki |
| --- | --- |
| Cc1ccccc1CNC(=O)C1N(C(=O)[C@@H](O)[C@H](CSc2ccccc2)NC(=O)c2cccc(O)c2C)CSC1(C)C (stereo partly shown) [drawing 934] | ≤ 0.1 nM |
| Cc1cccc(C)c1CNC(=O)[C@@H]1C[C@@H]2CCCC[C@@H]2CC1C(=O)[C@@H](O)[C@H](Cc1ccccc1)NC(=O)c1cccc(O)c1C (stereo partly shown) | 83 nM |
| C/C=C(/C)C(=O)N[C@@H](Cc1ccccc1)[C@H](O)C(=O)N1CSC(C)(C)[C@H]1C(=O)NCc1ccccc1C | 7.6 nM |
| COc1ccc(CNC(=O)N[C@@H](Cc2ccccc2)[C@H](O)C(=O)N2CSC(C)(C)C2C(=O)NCc2ccc(OC)cc2)cc1 (stereo partly shown) | 7.8 nM |
| Cc1ccccc1CNC(=O)[C@H]1N(C(=O)[C@@H](O)[C@H](Cc2ccccc2)NC(=O)CCN)CSC1(C)C | 156 nM |
| CCCNC(=O)[C@@H]1CC(F)(F)CN1C(=O)[C@@H](O)[C@H](Cc1ccccc1)NC(=O)O[C@H]1CCOC1 | 42 nM |
| Cc1ccccc1CNC(=O)[C@H]1N(C(=O)[C@@H](O)[C@H](Cc2ccccc2)NC(=O)CC(C)N)CSC1(C)C (stereo partly shown) | 108 nM |
| Cc1ccccc1CNC(=O)C1N(C(=O)[C@@H](O)[C@H](Cc2ccccc2)NC(=O)c2ccc3ccncc3c2)CSC1(C)C (stereo partly shown) | 3.4 nM |
| Cc1ccccc1CNC(=O)[C@H]1N(C(=O)[C@@H](O)[C@H](Cc2ccccc2)NC(=O)CCNC(=O)OC(C)(C)C)CSC1(C)C [drawing 1038] | 48 nM |
| C#CC(C)OC(=O)N[C@@H](Cc1ccccc1)[C@H](O)C(=O)N1CSC(C)(C)[C@H]1C(=O)NCc1ccccc1C (stereo partly shown) | 5.4 nM |
| Cc1ccccc1CNC(=O)[C@H]1N(C(=O)[C@@H](O)[C@H](Cc2ccccc2)NC(=O)CCNC(=O)OC(C)(C)C)CSC1(C)C [drawing 1035] | 94 nM |
| CCNC(=O)C1c2ccccc2CN1C(=O)[C@@H](O)[C@H](Cc1ccccc1)NC(=O)c1c(C)noc1C (stereo partly shown) | 84 nM |
| Cc1ccccc1CNC(=O)[C@H]1N(C(=O)[C@@H](O)[C@H](Cc2ccccc2)NC(=O)COc2cccc3ncccc23)CSC1(C)C | 14.2 nM |
| Cc1ccccc1CNC(=O)[C@H]1N(C(=O)[C@@H](O)[C@H](Cc2ccccc2)NS(=O)(=O)c2ccccc2)CSC1(C)C | 152 nM |
| Cc1c(C(=O)N[C@@H](Cc2ccccc2)[C@H](O)C(=O)N2CSC(C)(C)[C@H]2C(=O)N[C@@H]2C=CCCC2)ccc(F)c1O | 17.3 nM |
| Cc1ccccc1CNC(=O)[C@H]1N(C(=O)[C@@H](O)[C@H](Cc2ccccc2)NC(=O)CNc2ccc(F)cc2)CSC1(C)C | 6 nM |
| CC(C)(C)OC(=O)N[C@@H](Cc1ccccc1)[C@H](O)C(=O)N1CSC(C)(C)[C@H]1C(=O)NCc1ccccc1 | 21 nM |
| Cc1ccccc1CNC(=O)[C@H]1N(C(=O)[C@@H](O)[C@H](Cc2ccccc2)NC(=O)/C=C/c2ccco2)CSC1(C)C | 60 nM |
